Measured values: ChEMBL document CHEMBL1146941, “Synthesis of pyrazinamide Mannich bases and its antitubercular properties” (2006)
≈ marks a conversion by molar mass, not a printed value.

system: Mycobacterium tuberculosis; assay: Antimycobacterial activity against multi drug resistant Mycobacterium tuberculosis; type: functional

**Q.** Which MIC90 does the source give for `O=C(NCN1CCN(c2ccccn2)CC1)c1cnccn1` here?
**A.** Its MIC90 is > 25 µg/mL.

**Q.** Which MIC90 does the source give for `O=C(NCN1CCN(c2ccc(C(F)(F)F)cc2)CC1)c1cnccn1` here?
**A.** The MIC90 was 1.76 µg/mL (≈ 4.82 µM).

**Q.** With `CN1CCN(CNC(=O)c2cnccn2)CC1` as the compound, how does the MIC90 read?
**A.** The MIC90 was > 25 µg/mL.

**Q.** For `O=C(NCN1CCN(Cc2ccccc2)CC1)c1cnccn1`, which MIC90 is on record?
**A.** The MIC90 was > 25 µg/mL.

**Q.** With `O=C(NCN1CCN(c2cccc(Cl)c2)CC1)c1cnccn1` as the compound, how does the MIC90 read?
**A.** Its MIC90 is 6.25 µg/mL (≈ 18.8 µM).

**Q.** For `O=C(NCN1CCN(c2ccc(Cl)cc2)CC1)c1cnccn1`, which MIC90 is on record?
**A.** Its MIC90 is 12.5 µg/mL (≈ 37.7 µM).

**Q.** `COc1ccc(N2CCN(CNC(=O)c3cnccn3)CC2)cc1` was tested. Which MIC90 did it give?
**A.** Its MIC90 is > 25 µg/mL.

**Q.** With `O=C(NCN1CCN(c2ccc([N+](=O)[O-])cc2)CC1)c1cnccn1` as the compound, how does the MIC90 read?
**A.** Its MIC90 is 6.25 µg/mL (≈ 18.3 µM).

**Q.** How did the MIC90 turn out when `COc1cccc(N2CCN(CNC(=O)c3cnccn3)CC2)c1` was run?
**A.** The MIC90 was > 25 µg/mL.

**Q.** Which MIC90 does the source give for `O=C(NCN1CCN(c2ccccc2)CC1)c1cnccn1` here?
**A.** The MIC90 was > 25 µg/mL.

**Q.** How did the MIC90 turn out when `CCn1cc(C(=O)O)c(=O)c2cc(F)c(N3CCN(CNC(=O)c4cnccn4)CC3)cc21` was run?
**A.** The MIC90 was 0.78 µg/mL (≈ 1.72 µM).

**Q.** With `O=C(NCN1CCN(c2cc3c(cc2F)c(=O)c(C(=O)O)cn3C2CC2)CC1)c1cnccn1` as the compound, how does the MIC90 read?
**A.** The MIC90 was 0.78 µg/mL (≈ 1.67 µM).

**Q.** For `CCn1cc(C(=O)O)c(=O)c2cc(F)c(N3CCN(CNC(=O)c4cnccn4)CC3)c(F)c21`, which MIC90 is on record?
**A.** The MIC90 was 0.78 µg/mL (≈ 1.65 µM).

**Q.** How did the MIC90 turn out when `O=C(NCN1CCN(c2ncccn2)CC1)c1cnccn1` was run?
**A.** Its MIC90 is > 25 µg/mL.

**Q.** How did the MIC90 turn out when `COc1ccccc1N1CCN(CNC(=O)c2cnccn2)CC1` was run?
**A.** The MIC90 was > 25 µg/mL.

**Q.** `O=C(NCN1CCN(c2ccc(F)cc2)CC1)c1cnccn1` was tested. Which MIC90 did it give?
**A.** The MIC90 was 1.76 µg/mL (≈ 5.58 µM).

**Q.** Which MIC90 does the source give for `NC(=O)c1cnccn1` [PYRAZINAMIDE] here?
**A.** Its MIC90 is > 25 µg/mL.
